The first assay concerns the target T1, human M3 receptor (Homo sapiens, UniProt P20309).
T1 construct: expressed in transfected cells; host or cells: CHO cells (membrane preparation)
The assay is described as follows: Human M3 receptor antagonist activity, [3H]NMS receptor binding.
Conditions: not given
As to the method:
Measurement of the receptor binding ability was performed by using a transgenic human M3 receptor expression CHO cell membrane, 1-[N-methyl-^3H] scopolamine methyl bromide ([^3H]NMS, specific activity of 82 Cimmol). Protein concentration of the cell membrane was 2 μg per well, concentration of the [^3H]NMS was 1.0 nM.
Range of the antagonist concentration (10^−4 to 10^−11 M) was tested by creating a comparison curve. Unspecific binding was measured in the presence of 1 μM of atropine.
The reagent was adjusted to a total volume of 100 μL with a binding buffer (phosphate buffer/saline). The mixture was incubated at room temperature for 2 hours so as to reach equilibrium, and then the resultant mixture was transplanted to a GF/C filter plate that had been pretreated with a washing buffer containing 0.05% polyethyleneimine for 1 hour.
The bound [^3H]NMS and the free[^3H]NMS were separated by rapid vacuum filtration, and washed three times with a rinse buffer (50 mM of Tris, 100 mM of saline, and pH of 7.4). The obtained filter was dried, and then onto the dried filter, a solid scintillator, MeltiLex A (manufactured by PerkinElmer, Inc.) was fused, and the measurement and quantification were performed by using a β-counter (MicroBeta microplate scintillation counter (Trilux)).
The Ki value was calculated by the following equation.
T1 sequence (P20309 whole entry): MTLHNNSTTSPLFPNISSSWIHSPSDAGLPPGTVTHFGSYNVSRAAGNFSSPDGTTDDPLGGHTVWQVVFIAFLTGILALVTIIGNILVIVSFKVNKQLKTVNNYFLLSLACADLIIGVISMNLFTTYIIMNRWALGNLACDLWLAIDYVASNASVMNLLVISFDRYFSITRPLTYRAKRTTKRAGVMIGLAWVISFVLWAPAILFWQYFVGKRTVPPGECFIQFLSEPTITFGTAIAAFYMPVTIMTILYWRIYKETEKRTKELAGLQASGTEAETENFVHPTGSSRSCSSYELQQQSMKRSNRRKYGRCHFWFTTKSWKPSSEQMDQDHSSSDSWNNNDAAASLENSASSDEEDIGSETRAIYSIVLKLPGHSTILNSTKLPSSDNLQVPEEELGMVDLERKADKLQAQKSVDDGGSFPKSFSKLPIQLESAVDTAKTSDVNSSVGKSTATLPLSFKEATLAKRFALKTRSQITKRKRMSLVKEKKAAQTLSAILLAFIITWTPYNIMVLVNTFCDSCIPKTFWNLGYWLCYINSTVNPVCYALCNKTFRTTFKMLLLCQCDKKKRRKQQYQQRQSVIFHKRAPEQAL
The compound `COc1ccc(OCCC[N+]23CCC(CC2)C(OC(=O)C(O)(c2ccccc2)c2ccccc2)C3)cc1` (centres unmarked) [Compound 1-35] had an inhibition constant Ki of 5.89 nM.
Still for that read-out and setting: to `O=C(OC1C[N+]2(CCCOc3ccc(F)cc3)CCC1CC2)C(O)(c1ccccc1)c1ccccc1` (centres unmarked) [Compound 1-29] belongs 0.19 nM.
As for `O=C(OC1C[N+]2(CCCOc3ccc(C(F)(F)F)cc3)CCC1CC2)C(O)(c1ccccc1)c1ccccc1` (centres unmarked) [Compound 1-34], the affinity, expressed as Ki, was 2.7 nM.
Take `O=C(OC1C[N+]2(CCOCc3ccccc3)CCC1CC2)C(O)(c1ccccc1)c1ccccc1` (centres unmarked) [Compound 1-41]: the Ki worked out at 0.12 nM.
The same measure, in the same setting: the result for `O=C(OC1C[N+]2(CCCOc3ccc(OC(F)(F)F)cc3)CCC1CC2)C(O)(c1ccccc1)c1ccccc1` (centres unmarked) [Compound 1-36] reads 0.39 nM; that for `O=C(OC1C[N+]2(CCOc3ccccc3Br)CCC1CC2)C(O)(c1ccccc1)c1ccccc1` (centres unmarked) [Compound 1-6], 0.458 nM.
The same measure, in the same setting: to `O=C(OC1C[N+]2(CCOc3ccccc3Cl)CCC1CC2)C(O)(c1ccccc1)c1ccccc1` (centres unmarked) [Compound 1-5] belongs 2.39 nM.
Take `O=C(OC1C[N+]2(CCCOc3ccc(Br)cc3)CCC1CC2)C(O)(c1ccccc1)c1ccccc1` (centres unmarked) [Compound 1-31]: the Ki was found to be 0.32 nM.
`Cc1ccc(OCCC[N+]23CCC(CC2)C(OC(=O)C(O)(c2ccccc2)c2ccccc2)C3)cc1` (centres unmarked) [Compound 1-33] came in with an inhibition constant (Ki) of 0.058 nM.
The same measure, in the same setting: to `O=C(OC1C[N+]2(CCCOc3ccc(Cl)cc3)CCC1CC2)C(O)(c1ccccc1)c1ccccc1` (centres unmarked) [Compound 1-30] belongs 0.084 nM.
The same measure, in the same setting: to `O=C(OC1C[N+]2(CCOc3ccccc3F)CCC1CC2)C(O)(c1ccccc1)c1ccccc1` (centres unmarked) [Compound 1-4] belongs 0.114 nM; to `O=C(OC1C[N+]2(CCCOc3ccc(I)cc3)CCC1CC2)C(O)(c1ccccc1)c1ccccc1` (centres unmarked) [Compound 1-32], 0.22 nM.

A further assay concerns methacholine-induced airway constriction. Nature of the assay: Effect on methacholine-induced airway constriction (airway resistance). As to conditions: 47.9 μg/kg transairway, when exceeding 96 hours after the administration, ICR mice (FIG. 2). Type of assay: in vivo. The procedure: The increase of airway resistance by methacholine induction was measured. To 4 to 6-week old ICR mice, methacholine at 1 mg/mL was administered 5 times by spraying the methacholine for 20 seconds. After completion of the methacholine administration, the airway resistance was measured by a snap shot technique. All of the data were analyzed by using FlexiVent software.
The test compound at 47.9 μg/kg was administered to the mice through the transairway. The mice were exposed 5 times to nebulized methacholine 1 hour, 96 hours, and 120 hours after the administration, and the airway resistance at each time was measured.
For the compound `O=C(O[C@H]1C[N+]2(CCCOc3ccccc3)CCC1CC2)C(O)(c1cccs1)c1cccs1` [aclidinium, reference compound], the “airway resistance after methacholine” value is reported as “did not reduce the airway resistance”.

For another assay, the system named is porcine pancreatic elastase-induced inflammation. Nature of the assay: Effect on porcine pancreatic elastase-induced inflammation (total cells in BALF). Format: in vivo. The conditions noted are these: single transairway dose 1 hour before porcine pancreatic elastase 100 μg/mouse; BALF 24 hours after elastase; ICR mice. As to the method: To 4 to 6-week old ICR mice, a test compound was administered once through the transairway. Porcine pancreatic elastase at 100 μg/mouse was administered 1 hour after the administration of the test compound. Bronchoalveolar lavage fluid (BALF) was collected from the lungs 24 hours after the administration of porcine pancreatic elastase, and the total number of cells was measured.
In the case of `O=C(O[C@H]1C[N+]2(CCCOc3ccccc3)CCC1CC2)C(O)(c1cccs1)c1cccs1` [aclidinium, reference compound], the “total number of cells in BALF” value is “did not show any beneficial anti-inflammatory effects”.
On the same count and under the same terms, the result for `O=C(O[C@H]1C[N+]2(CCCc3ccccc3)CCC1CC2)C(O)(c1ccccc1)c1ccccc1` [Compound 1-18] reads “reduced in a dose-dependent manner”.
The same measure, in the same setting: the result for `O=C(O[C@@H]1C[N+]2(CCCc3ccccc3)CCC1CC2)C(O)(c1ccccc1)c1ccccc1` [Compound 1-19] reads “reduced in a dose-dependent manner”; that for `O=C(OC1C[N+]2(CCCc3ccccc3)CCC1CC2)C(O)(c1ccccc1)c1ccccc1` (centres unmarked) [Compound 1-20], “reduced in a dose-dependent manner”.

For orientation: Ki means the equilibrium dissociation constant of an inhibitor or competing ligand from its target.

(Values after patent US10155755B2, “Quinuclidine derivative” (LTT BIO-PHARMA CO., LTD., priority 2015, dated 2018).)
